“And” between values parts separate entries of the source, which are not always exact repeats. Equal entries are not always repeated.
What was measured:
Human Primary Adipocytes [1] = assay: Free fatty acid levels in cultured human primary adipocytes, isoproterenol stimulated (Example 4); assay type: cell-based; conditions: test peptides 25 μM; isoproterenol 1 nM
Procedure: Human primary adipocytes were seeded at 5,000-100,000 cells per well on 96-well, 48-well, or 24-well plates in Pre-adipocyte Medium (Zen-Bio, Durham, N.C.) and grown to confluence at 37° C. in a humidified atmosphere of 5% CO2/95% air. Two days after confluence, cells were placed in Adipocyte Differentiation Medium (Zen-Bio, Durham, N.C.) and cultured for three additional days at 37° C. in a humidified atmosphere of 5% CO2/95% air. The culture media was then replaced with Adipocyte Maintenance Medium (Zen-Bio) and the cells were maintained for an additional 11-21 days at 37° C. in a humidified atmosphere of 5% CO2/95% air with partial medium replacement every other day. Following 14-24 days of differentiation, test peptides were added at a final concentration of 25 μM and incubated for 18-20 hours in Adipocyte Maintenance Medium at 37° C. in a humidified atmosphere of 5% CO2/95%. After 18-20 hours, the media was exchanged with fresh Adipocyte Maintenance Medium containing test peptides and incubated for 1 h at 37° C. in a humidified atmosphere of 5% CO2/95%. After 1 h media was exchanged with Assay Buffer (Zen-Bio) containing isoproterenol (1 nM) (added to all samples except untreated controls) and test peptides. Cells were incubated for a further 3 hours at 37° C. in a humidified atmosphere of 5% CO2/95%. Free fatty acid concentrations in the media were determined using a Free Fatty Acid Assay Kit (Zen-Bio) according to the manufacturer's instructions using a plate reader (540 nm). Absorbance values were corrected for untreated background and expressed relative to isoproterenol treated cells. Treatment with isoproterenol (1 nM) alone was used as the free fatty acid level stimulatory control. The relative standard deviation of the isoproterenol control was <14%. […] Free fatty acid levels for insulin (100 nM) treatment were <5% of the isoproterenol control value.

3T3-L1 Adipocytes [2] = assay: Free fatty acid levels in cultured mouse 3T3-L1 adipocytes, isoproterenol stimulated (Example 2); assay type: cell-based; conditions: test peptides 25 μM; isoproterenol 1 nM
Method in brief: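 Release of free fatty acids, read at 540 nm, was stimulated with 1 nM isoproterenol for 3 h in mouse 3T3-L1 adipocytes (12–17 days of differentiation). Cells were pre-exposed to 25 μM peptide for 18–20 h plus 1 h, with peptide kept in during stimulation. Values are background-subtracted and normalised to isoproterenol alone.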

3T3-L1 Adipocytes [3] = assay: Free fatty acid levels in cultured mouse 3T3-L1 adipocytes, forskolin stimulated (Example 3); assay type: cell-based; conditions: test peptides 25 μM; forskolin 1 μM
Procedure: Mouse 3T3-L1 cells were seeded at 1,000-20,000 cells per well on 96-well, 48-well, or 24-well plates in Pre-adipocyte Medium (Zen-Bio, Durham, N.C.) and grown to confluence at 37° C. in a humidified atmosphere of 5% CO2/95% air. Two days after confluence, cells were placed in Adipocyte Differentiation Medium (Zen-Bio, Durham, N.C.) and cultured for three additional days at 37° C. in a humidified atmosphere of 5% CO2/95% air. The culture media was then replaced with Adipocyte Maintenance Medium (Zen-Bio) and the cells were maintained for an additional 9-14 days at 37° C. in a humidified atmosphere of 5% CO2/95% air with partial medium replacement every other day. Following 12-17 days of differentiation, test peptides were added at a final concentration of 25 μM and incubated for 18-20 hours in Adipocyte Maintenance Medium at 37° C. in a humidified atmosphere of 5% CO2/95%. After 18-20 hours, the media was exchanged with fresh Adipocyte Maintenance Medium containing test peptides and incubated for 1 h at 37° C. in a humidified atmosphere of 5% CO2/95%. After 1 h media was exchanged with Assay Buffer (Zen-Bio) containing forskolin (1 μM) (added to all samples except untreated controls) and test peptides. Cells were incubated for a further 3 hours at 37° C. in a humidified atmosphere of 5% CO2/95%. Free fatty acid concentrations in the media were determined using a Free Fatty Acid Assay Kit (Zen-Bio) according to the manufacturer's instructions using a plate reader (540 nm). Absorbance values were corrected for untreated background and expressed relative to forskolin treated cells. Treatment with forskolin (1 μM) alone was used as the free fatty acid level stimulatory control. The relative standard deviation of the forskolin control was <10%. […] Free fatty acid levels for insulin (100 nM) treatment were <9% of the forskolin control value.

Human Primary Adipocytes [4] = assay: Free fatty acid levels in cultured human primary adipocytes, forskolin stimulated (Example 5); assay type: cell-based; conditions: test peptides 25 μM; forskolin 1 μM
Procedure: Human primary adipocytes were seeded at 5,000-100,000 cells per well on 96-well, 48-well, or 24-well plate in Pre-adipocyte Medium (Zen-Bio, Durham, N.C.) and grown to confluence at 37° C. in a humidified atmosphere of 5% CO2/95% air. Two days after confluence, cells were placed in Adipocyte Differentiation Medium (Zen-Bio, Durham, N.C.) and cultured for three additional days at 37° C. in a humidified atmosphere of 5% CO2/95% air. The culture media was then replaced with Adipocyte Maintenance Medium (Zen-Bio) and the cells were maintained for an additional 11-21 days at 37° C. in a humidified atmosphere of 5% CO2/95% air with partial medium replacement every other day. Following 14-24 days of differentiation, test peptides were added at a final concentration of 25 μM and incubated for 18-20 hours in Adipocyte Maintenance Medium at 37° C. in a humidified atmosphere of 5% CO2/95%. After 18-20 hours, the media was exchanged with fresh Adipocyte Maintenance Medium containing test peptides and incubated for 1 h at 37° C. in a humidified atmosphere of 5% CO2/95%. After 1 h media was exchanged with Assay Buffer (Zen-Bio) containing forskolin (1 μM) (added to all samples except untreated controls) and test peptides. Cells were incubated for a further 3 hours at 37° C. in a humidified atmosphere of 5% CO2/95%. Free fatty acid concentrations in the media were determined using a Free Fatty Acid Assay Kit (Zen-Bio) according to the manufacturer's instructions using a plate reader (540 nm). Absorbance values were corrected for untreated background and expressed relative to forskolin treated cells. Treatment with forskolin (1 μM) alone was used as the free fatty acid level stimulatory control. The relative standard deviation of the forskolin control was <20%. […] Free fatty acid levels for insulin (100 nM) treatment were <8% of the forskolin control value.

[5] = system: Diet Induced Obese (DIO) mice; assay: Body weight, blood glucose and fat mass in Diet Induced Obese mice, 10 days (Example 6); assay type: in vivo, Male C57BL/6 mice; conditions: male DIO mice; 10 days twice daily intraperitoneal 15 mg/kg; N = 8; mean
Method in brief: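 Male DIO mice (n=8/group), randomized by blood glucose and body weight, dosed 15 mg/kg/dose once or twice daily s.c. or i.p. for 10 days vs vehicle. Body weight, blood glucose and food intake monitored; fat vs lean mass by quantitative whole-body NMR before and after dosing.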

[6] = Stability in mouse plasma, peptides 100 uM (Example 14); assay type: in vitro ADME; conditions: mouse plasma 37° C., peptide 100 uM; for remaining at 0.25 h, 100 uM / remaining at 0.5 h, 100 uM / remaining at 1 h, 100 uM / remaining at 2 h, 100 uM / remaining at 3 h, 100 uM: pooled mouse plasma; for remaining at 0.25 h, 100 uM: 15 min, read-out: % Remaining at Each Time Point: 15 min; for remaining at 0.5 h, 100 uM: 30 min, read-out: % Remaining at Each Time Point: 30 min; for remaining at 1 h, 100 uM: 60 min, read-out: % Remaining at Each Time Point: 60 min; for remaining at 2 h, 100 uM: 120 min, read-out: % Remaining at Each Time Point: 120 min; for remaining at 3 h, 100 uM: 180 min, read-out: % Remaining at Each Time Point: 180 min
Procedure: (§1) Peptides (100 uM) were incubated in pooled mouse plasma at 37° C. and samples were removed and immediately analyzed for the concentration of intact peptide by LC/MS/MS over the course of 3 hours. The percent of peptide remaining in plasma at each time point was calculated relative to the initial peak area (Table 12).

[7] = Stability in mouse plasma, peptides 10 uM (Example 15); assay type: in vitro ADME; conditions: mouse plasma 37° C., peptide 10 uM
Procedure: as §1, with “(10” for “(100”, “13).” for “12).”

Row | % Remaining at Each Time Point: 0 min [6] | remaining at 0.25 h, 100 uM [6] | remaining at 0.5 h, 100 uM [6] | remaining at 1 h, 100 uM [6] | remaining at 2 h, 100 uM [6] | remaining at 3 h, 100 uM [6] | % Remaining at Each Time Point: 0 min ([7]; 0 min) | remaining at 0.25 h, 10 uM ([7]; pooled mouse plasma, 15 min, read-out: % Remaining at Each Time Point: 15 min) | remaining at 0.5 h, 10 uM ([7]; pooled mouse plasma, 30 min, read-out: % Remaining at Each Time Point: 30 min) | remaining at 1 h, 10 uM ([7]; pooled mouse plasma, 60 min, read-out: % Remaining at Each Time Point: 60 min) | remaining at 2 h, 10 uM ([7]; pooled mouse plasma, 120 min, read-out: % Remaining at Each Time Point: 120 min) | remaining at 3 h, 10 uM ([7]; pooled mouse plasma, 180 min, read-out: % Remaining at Each Time Point: 180 min) | Substance | Free Fatty Acid Levels in Human Primary Adipocytes Expressed as a Percent of Isoproterenol Control: Percent of Control Value (Human Primary Adipocytes [1]) | Free Fatty Acid Levels in 3T3-L1 Adipocytes Expressed as a Percent of Isoproterenol Control: Percent of Control Value (3T3-L1 Adipocytes [2]) | Free Fatty Acid Levels in 3T3-L1 Adipocytes Expressed as a Percent of Forskolin Control: Percent of Control Value (3T3-L1 Adipocytes [3]) | Free Fatty Acid Levels in Human Primary Adipocytes Expressed as a Percent of Forskolin Control: Percent of Control Value (Human Primary Adipocytes [4]) | Difference from Vehicle Control: Decrease from Baseline in Blood Glucose [5] | Difference from Vehicle Control: Decrease from Baseline in Body Weight (%) [5] | Difference from Vehicle Control: Decrease from Baseline in Fat Mass [5]
1 | 100% | 56.7% | 49% | 38.9% | 23.8% | 18.3% |  |  |  |  |  |  | H-MRWQEMGYIFYPR-OH [compound 47] | 60.5% | 24.5% | 45.3% | 89.9% |  |  | 
2 | 100% | 33.1% | 37.7% | 19.3% | 5.96% | 2.11% |  |  |  |  |  |  | H-MRWQEMGYIFYPRK(Ac)LR-OH [compound 69] | 53.0% | 61.3% |  | 119% |  |  | 
3 | 100% | 28.1% | 26.4% | 31.4% | 12.4% | 12.6% |  |  |  |  |  |  | H-MRWQEMGYIFYPRK-OH [compound 46] | 71.6% | 43.1% | 66.8% | 73.9% |  |  | 

Further lines, the substance ahead of its results:

Row | Substance | % Remaining at Each Time Point: 0 min [6] | remaining at 0.25 h, 100 uM [6] | remaining at 0.5 h, 100 uM [6] | remaining at 1 h, 100 uM [6] | remaining at 2 h, 100 uM [6] | remaining at 3 h, 100 uM [6] | % Remaining at Each Time Point: 0 min ([7]; 0 min) | remaining at 0.25 h, 10 uM ([7]; pooled mouse plasma, 15 min, read-out: % Remaining at Each Time Point: 15 min) | remaining at 0.5 h, 10 uM ([7]; pooled mouse plasma, 30 min, read-out: % Remaining at Each Time Point: 30 min) | remaining at 1 h, 10 uM ([7]; pooled mouse plasma, 60 min, read-out: % Remaining at Each Time Point: 60 min) | remaining at 2 h, 10 uM ([7]; pooled mouse plasma, 120 min, read-out: % Remaining at Each Time Point: 120 min) | remaining at 3 h, 10 uM ([7]; pooled mouse plasma, 180 min, read-out: % Remaining at Each Time Point: 180 min) | Free Fatty Acid Levels in Human Primary Adipocytes Expressed as a Percent of Isoproterenol Control: Percent of Control Value (Human Primary Adipocytes [1]) | Free Fatty Acid Levels in 3T3-L1 Adipocytes Expressed as a Percent of Isoproterenol Control: Percent of Control Value (3T3-L1 Adipocytes [2]) | Free Fatty Acid Levels in 3T3-L1 Adipocytes Expressed as a Percent of Forskolin Control: Percent of Control Value (3T3-L1 Adipocytes [3]) | Free Fatty Acid Levels in Human Primary Adipocytes Expressed as a Percent of Forskolin Control: Percent of Control Value (Human Primary Adipocytes [4]) | Difference from Vehicle Control: Decrease from Baseline in Blood Glucose [5] | Difference from Vehicle Control: Decrease from Baseline in Body Weight (%) [5] | Difference from Vehicle Control: Decrease from Baseline in Fat Mass [5]
4 | Ac-RWQEMGYIFYPRKLR-NH2 [compound 52] |  |  |  |  |  |  |  |  |  |  |  |  | 126% | 85.6% and 99.5% | 88.0% | 107% |  |  | 
5 | Ac-YIFYPRKLR-NH2 [compound 58] |  |  |  |  |  |  |  |  |  |  |  |  | 164% | 97.3% |  | 134% |  |  | 
6 | H-MRAQEMGYIFYPRKLR-OH [compound 8] | 100% | 13.2% | 11.2% | 10.1% | 11.7% | 9.81% |  |  |  |  |  |  | 22.2% |  |  | 107% | -20.0 mg/dL | −0.24% | -0.20 g
7 | H-MRWQEMGYIFYPRKL-OH [compound 45] |  |  |  |  |  |  | 100% | 66.5% | 33% | 7.31% | 0% | 0% | 22.2% | 37.9% |  | 125% | 6.00 mg/dL | −2.01% | -0.69 g
8 | H-QEMGYIFYPRKLR-OH [compound 40] |  |  |  |  |  |  |  |  |  |  |  |  | 122% | 83.1% | 96.1% | 107% |  |  | 
